# According to PMC3463238 (Toxicology letters, 2012):
# Where two headings read alike, the source gives them in different places. Marks after values point to notes of the source that are not given here.
# Legend:
# [1] = system: CYP2E1 transgenic cells (h2E1); conditions: for Decrease in cell viability relative to vehicle group: 24 h, 100 μM
# [2] = system: cellular proteins of CYP2E1 cells; conditions: human, 24 h, 100 μM
# recombinant human CYP2E1 = recombinant human CYP2E1 (Homo sapiens, UniProt P05181); conditions: pH 7.4
# in vitro [3] = conditions: human
# in vitro [4] = conditions: human; remark: listed apart in the source
# [5] = system: cellular proteins of wild-type cells; conditions: human, 24 h, 100 μM
# [6] = Reactivity of styrene oxide and halogenated styrene oxides to cysteamine; format: physicochemical; conditions: oxide 1.0 μM, cysteamine 100 μM, phosphate buffer, 37 °C
# [7] = Observed stability of the compound; format: physicochemical
# [8] = Cellular GSH contents in CYP2E1 cells; conditions: human
# [9] = system: cellular proteins of CYP2E1 cells; assay: Cellular protein covalent binding of 14C-labeled styrenes in CYP2E1 cells; conditions: 14C-labeled compound 100 μM, 24 h
# [10] = Cytotoxicity in CYP2E1 transgenic cells; conditions: human
# Chain of recombinant human CYP2E1 (P05181 whole entry): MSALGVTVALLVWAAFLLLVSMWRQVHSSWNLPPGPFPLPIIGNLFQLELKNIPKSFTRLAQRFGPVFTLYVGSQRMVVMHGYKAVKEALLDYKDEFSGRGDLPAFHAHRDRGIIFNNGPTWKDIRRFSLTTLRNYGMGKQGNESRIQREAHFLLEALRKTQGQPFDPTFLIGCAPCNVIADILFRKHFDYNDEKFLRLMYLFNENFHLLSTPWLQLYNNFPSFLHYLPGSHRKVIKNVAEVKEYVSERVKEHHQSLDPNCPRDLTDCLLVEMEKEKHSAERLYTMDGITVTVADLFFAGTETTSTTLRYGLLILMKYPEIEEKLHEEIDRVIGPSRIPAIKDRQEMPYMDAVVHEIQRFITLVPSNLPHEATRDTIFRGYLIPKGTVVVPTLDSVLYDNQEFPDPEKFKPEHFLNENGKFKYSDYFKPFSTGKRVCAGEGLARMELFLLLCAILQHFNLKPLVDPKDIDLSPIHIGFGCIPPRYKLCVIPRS
SMILES,Rate constant for production of the cysteamine adducts [6] [min⁻¹],Bioactivation index (k × Vmax/Km) (recombinant human CYP2E1),"viability at 24 h, 100 µM (in vitro [3]) [%]","activity at 3 h, 100 µM (in vitro [4]) [%]",also measured
"C=Cc1ccc(F)cc1 [F-ST, 4-fluorostyrene]",–,10.4 ± 0.64 ^a,78.8 ± 3.2,82.4 ± 2.2,Toxicity to CYP2E1 cells compared with another compound [1]: little difference in toxicity; Binding load (radioactivity bound to cellular proteins) [2]: 2.27 nmol/mg protein
"C=Cc1ccc(Br)cc1 [Br-ST, 4-bromostyrene]",–,31.9 ± 3.48 ^c,39.6 ± 4.1,61 ± 6.5,Decrease in cell viability relative to vehicle group ([1]; human): 39.6%; Binding load (radioactivity bound to cellular proteins) [2]: 6.17 nmol/mg protein; Fold lower radioactivity bound to proteins in wild-type cells than CYP2E1 cells [5]: 5 fold
"C=Cc1ccc(Cl)cc1 [Cl-ST, 4-chlorostyrene]",–,15.8 ± 2.03 ^b,57.7 ± 9.9,71.2 ± 5.8,Decrease in cell viability relative to vehicle group ([1]; human): 57.7%
C=Cc1ccc(I)cc1 [4-iodostyrene],–,–,–,–,Stability [7]: unstableness; Toxicity to CYP2E1 cells compared with another compound ([1]; human): more toxic than 4-bromostyrene
c1ccc(C2CO2)cc1 (stereo not drawn) [styrene oxide],13.4 ± 1.88,–,–,–,–
"C=Cc1ccccc1 [ST, Styrene]",–,–,–,–,"activity at 3 h, 100 µM [8]: 83.7 ± 2.1%; Binding load (radioactivity bound to cellular proteins) [9]: 2.02 nmol/mg protein; viability at 24 h, 100 µM [10]: 80 ± 3%"

# Second part, led by results:
Rate constant for production of the cysteamine adducts [6] [min⁻¹],SMILES,Bioactivation index (k × Vmax/Km) (recombinant human CYP2E1),"viability at 24 h, 100 µM (in vitro [3]) [%]","activity at 3 h, 100 µM (in vitro [4]) [%]",also measured
16.1 ± 2.08,Clc1ccc(C2CO2)cc1 (stereo not drawn) [4-chlorostyrene oxide],–,–,–,–
15.7 ± 1.57,Fc1ccc(C2CO2)cc1 (stereo not drawn) [4-fluorostyrene oxide],–,–,–,–
29.3 ± 3.19,Brc1ccc(C2CO2)cc1 (stereo not drawn) [4-bromostyrene oxide],–,–,–,–
